From patent publication US20260112450A1, “METHODS FOR SELECTION OF CANCER PATIENTS FOR ANTI-ANGIOGENIC AND IMMUNE CHECKPOINT BLOCKAGE THERAPIES AND COMBINATIONS THEREOF” (Washington University, priority 2022, published 2026)
Several values for one entry are separate records, joined by “and”; a condition that tells them apart may be missing. Equal values may be shown once.

Tests used:
[1] = test system: clear cell renal carcinoma; test: Braun dataset (Checkmate 025 and Checkmate 010): overall survival, re-evaluated by angio-immune subtype; format: in vivo, human; conditions: for differences in median OS between angio-immune molecular subtypes: comparison of C1, C2 and C3 within one treatment arm
Description: (§1) Immunotherapy datasets: Pre-treatment TPM normalized RNA sequencing data from anti-PD1/L1 and anti-CTLA4 treated cohorts were downloaded for the studies as described in Table 1. Studies were selected based on the following criteria: >20 samples for enrichment calculation, RNA sequencing of pre-treatment biopsies, and only anti-PD1/PDL1 treated patients. Gene signature enrichment and molecular subtypes were derived as described elsewhere in the manuscript. Survival and response rates to treatment when available were compared among angio-immune clusters.
(§2) Quantification and Statistical Analysis: Unless indicated elsewhere, all visualizations were completed in GraphPad Prism 9. GraphPad Prism 9 was used for all statistical analysis. Data is presented as mean±standard error of mean. One way ANOVA was used for comparison across more than two groups. Non-parametric tests were used when data was not normally distributed. Log rank tests were used for all survival analysis. Alpha value of 0.05 was used throughout the study.
(§3) The approval of the combination of avelumab, an anti-PDL1, and axitinib, a small molecule tyrosine kinase inhibitor, for the first-line treatment of metastatic renal cancer was provided in 2020. […] Next, it was sought to ascertain if stratification by angio-immune subtypes can confer more significant differences in responses and survival.
(§4) The enrichment of the 91 angio-immune signatures was scored using RNA sequencing data from pre-treatment biopsies.
Survival was tracked across clusters to identify if angio-immune molecular subtypes can inform treatment choice in this setting. […] To determine if patients belonging to C1, C2, and C3 derive clinical benefit from Nivolumab over everolimus, OS was tracked among angio-immune molecular subtypes across treatment arms.

[2] = test system: metastatic renal cancer; test: Javelin Renal 101 clinical trial: progression free survival, re-evaluated by angio-immune subtype; format: in vivo, human
Description: as §1, §2, §3, §4
Survival was tracked across clusters to identify if angio-immune molecular subtypes can inform treatment choice in this setting.

[3] = all patients with pre-treatment RNA sequencing data, Braun dataset
[4] = patients in angio-immune subtype C1, Braun dataset
[5] = patients in angio-immune subtype C2, Braun dataset
[6] = patients in angio-immune subtype C3, Braun dataset

Compound: CO[C@H]1C[C@@H]2CC[C@@H](C)[C@@](O)(O2)C(=O)C(=O)N2CCCC[C@H]2C(=O)O[C@H]([C@H](C)C[C@@H]2CC[C@@H](OCCO)[C@H](OC)C2)CC(=O)[C@H](C)/C=C(\C)[C@@H](O)[C@@H](OC)C(=O)[C@H](C)C[C@H](C)/C=C/C=C/C=C/1C [everolimus]
- median OS [1, 3]: 19.7454 months
- differences in median OS between angio-immune molecular subtypes [1]: no significant differences
- median OS [1, 4]: 24.6735 months
- median OS [1, 5]: 21.13 months
- median OS [1, 6]: 13.27 months

Compound: CCN(CC)CCNC(=O)c1c(C)[nH]c(/C=C2\C(=O)Nc3ccc(F)cc32)c1C [sunitinib]
- median PFS ([2]; all patients with pre-treatment RNA sequencing data, Javelin Renal 101 dataset): 8.4 months
- median PFS ([2]; patients in angio-immune subtype C1, Javelin Renal 101 dataset): 9.7 months
- median PFS ([2]; patients in angio-immune subtype C2, Javelin Renal 101 dataset): 8.3 months
- median PFS ([2]; patients in angio-immune subtype C3, Javelin Renal 101 dataset): 8.2 months

Compound: Nivolumab: an anti-PD1 therapy
- median OS [1, 3]: 25.9877 months
- differences in median OS between angio-immune molecular subtypes [1]: significant improvement in median OS
- clinical benefit (OS) compared to everolimus ([1]; patients in C1, p=0.6347): no clinical benefit
- clinical benefit (OS) compared to everolimus ([1]; patients in C2, p=0.0581): no statistically significant clinical benefit
- median OS compared to the everolimus arm ([1]; patients in C3, p<0.0043): significantly improved
- median OS [1, 4]: 16.9528 months
- median OS [1, 5]: 36.961 months and 36.96 months
- median OS [1, 6]: 29.8645 months and 29.86 months
